{
  "source": "patent US20240398775A1",
  "about": "“PHARMACEUTICAL COMPOSITION FOR USE IN TREATING COGNITIVE DECLINE OR FOR USE IN TREATING OVERWEIGHT OR OBESITY” (University of the Ryukyus, priority 2021, published 2024)",
  "key": {"[1]": {"tested_on": "NMDA receptor (NMDAR)", "experiment": "Ca2+ imaging (Fluo-3) of hippocampal brain slices, NMDA + glycine application (NMDA reaction)", "format": "cell-based, mouse", "details": "for function of NMDAR in EC, CA1, CA2, CA3 and DG: leptin 100 nM"}, "[2]": {"tested_on": "NL-G-F(−/−) mice", "experiment": "Hippocampus function-dependent fear conditioning test in NL-G-F(−/−) mice", "format": "in vivo, mouse", "details": "perampanel alone 5 mg/kg or 10 mg/kg", "protocol": "Contextual fear conditioning was applied with slight modifications to published protocols (50). Mice were transferred to the animal experimental room and allowed to acclimatize for at least 30 minutes prior to contextual fear conditioning training. Next, the mice were placed in a foot shock system model MK-450 MSQ (Muromachi Kikai Co., Ltd., Japan), searching was performed for 2 minutes, and then 3 electric foot shocks (0.8 mA, 2 sec, 2 min interval) were performed. After mice were left in the apparatus for an additional 1 minute, the animals were removed.\nNL-G-F(−/−) mice, a dementia model, were administered with memantine (mema), exercise, memantine and exercise, memantine and perampanel, and perampanel alone (5 mg/kg or 10 mg/kg), and subjected to behavioral experiments. As the behavior test, a novel object recognition test and a hippocampus function-dependent fear conditioning test were performed. Memantine is an antagonist of the NMDA receptor, but has distinct properties from other NMDA receptor antagonists (refer to Hokama Y., et al., Neuro Oncology, 2022, noac162). That is, memantine is a drug that works only when glutamic acid is excessively present in the brain."}, "[3]": {"tested_on": "Ca2+ permeable AMPAR (CP-AMPAR)", "experiment": "Ca2+ imaging (Fluo-3) of hippocampal brain slices, AMPA + CTZ application (CP-AMPA reaction)", "format": "cell-based, mouse"}},
  "data": [
    {"compound": "C[C@H](CCC(=O)O)C[C@H](C)C[C@H](C)C(=O)/C=C(\\O)[C@H](C)C[C@H](C)C/C=C/[C@@H](C)[C@@H](O)[C@@H](C)[C@@H](O)C[C@@H]1CC[C@@](C)([C@H]2CC[C@@](C)([C@@H](C)O)O2)O1", "note": "[ionomycin]", "values": [
      {"measurement": "NMDA receptor reactivity due to addition of NMDA and glycine", "setting": "[1]; slices of 14 to 16 week old mice on normal diet, 2 mM Ca2+, pretreated with 1 μM ionomycin for 10 min, n=4", "result": "disappeared"}
    ]},
    {"compound": "CC12CC3CC(C)(C1)CC(N)(C3)C2", "note": "[memantine]", "values": [
      {"measurement": "cognitive function in hippocampus function-dependent fear conditioning test", "setting": "[2]", "result": "improvement in cognitive function"}
    ]},
    {"compound": "N[C@H](CCCP(=O)(O)O)C(=O)O", "note": "[APV, D-(−)-2-amino-5 phosphonovaleric acid]", "values": [
      {"measurement": "NMDA receptor reactivity to NMDA and glycine", "setting": "[1]; 2 w HFD slices under calcium ion-free (0 mM Ca) conditions, in the presence of APV", "result": "disappeared"},
      {"measurement": "NMDA receptor reactivity to NMDA and glycine", "setting": "[1]; BAPTA-AM-treated 2 w HFD slices, APV 50 μM simultaneously with NMDA and glycine", "result": "abolished"}
    ]},
    {"compound": "CC(=O)OCOC(=O)CN(CC(=O)OCOC(C)=O)c1ccccc1OCCOc1ccccc1N(CC(=O)OCOC(C)=O)CC(=O)OCOC(C)=O", "note": "[BAPTA-AM]", "values": [
      {"measurement": "NMDA receptor reactivity to NMDA (50 μM) and glycine (10 μM)", "setting": "[1]; brain slices of 2 w HFD mice treated 60 min with 3 μM BAPTA-AM, n=3", "result": "restoration of reactivity"}
    ]},
    {"compound": "Cc1cn2c(n1)Cc1ccc(Cl)cc1C(c1ccc(N)cc1)=N2", "note": "[GYKI 47261]", "values": [
      {"measurement": "increase in [Ca2+]i via AMPAR", "setting": "[3]", "result": "completely repressed"},
      {"measurement": "increase in [Ca2+]i via pathological AMPARs", "setting": "[3]", "result": "disappeared"},
      {"measurement": "inhibitory effect on CP-AMPAR in EC, CA1, CA2, CA3 and DG", "setting": "[3]", "result": "significant inhibitory effect"}
    ]},
    {"compound": "NCCCNCCCCNCCCNC(=O)Cc1cccc2ccccc12", "note": "[NASPM, N-[3-[[4-[(3-aminopropyl)amino]butyl]amino]propyl]-1-naphthaleneacetamide]", "values": [
      {"measurement": "increase in [Ca2+]i via AMPAR", "setting": "[3]", "result": "completely repressed"},
      {"measurement": "increase in [Ca2+]i via pathological AMPARs", "setting": "[3]", "result": "disappeared"},
      {"measurement": "inhibitory effect on CP-AMPAR in EC, CA1, CA2, CA3 and DG", "setting": "[3]", "result": "significant inhibitory effect"}
    ]},
    {"compound": "leptin: a hormone that regulates energy expenditure", "values": [
      {"measurement": "function of NMDAR in EC, CA1, CA2, CA3 and DG", "setting": "[1]; HFD mice orally administered PER", "result": "significantly enhanced"},
      {"measurement": "function of NMDAR in EC, CA1, CA2, CA3 and DG", "setting": "[1]; ob/ob mice orally administered PER", "result": "significantly enhanced"}
    ]}
  ]
}
